Tests used:
[1] = tested on: Aβ1-42; experiment: Measurement of Aβ1-42 in culture medium of 7W WT APP751 CHO cells by ELISA; format: cell-based, Chinese hamster; settings: for activity at 5 µM: Cricetulus griseus, Table 1, 5 μM test compound, CHO cells stably transfected with human APP751, culture medium, ELISA, control DMSO, 0 = no detectable amount, read-out: Aβ1-42 (% of control); for Aβ1-42 (% of control): CHO cells that overexpress APP751, zero = below the detection limit of the assay
[2] = tested on: Aβ1-40; experiment: Measurement of Aβ1-40 in culture medium of 7W WT APP751 CHO cells by ELISA; format: cell-based, Chinese hamster; settings: for activity at 5 µM: Cricetulus griseus, Table 1, 5 μM test compound, CHO cells stably transfected with human APP751, culture medium, ELISA, control DMSO, 0 = no detectable amount; for Aβ1-40 (% of control): CHO cells that overexpress APP751, zero = below the detection limit of the assay
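Note: 5 µM test compound but RI-coded compounds at 10 µM for 24 hours.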

## N#CC1=C2NC(=O)c3c(sc4c3CCCCC4)N2C2=C(C(=O)CCC2)C1c1ccc(F)cc1 (stereo not shown) [ST041668, 5-(4-fluorophenyl)-4,8-dioxo-1,2,3,5,7,9,10,11,12,13,15-undecahydrocyclohepta[1,2-b]quinolino[1′,2′-2,1]pyrimidino[5,6-d]thiophene-6-carbonitrile]
[1]
  activity at 5 µM: 27.9%
[2]
  activity at 5 µM: 88.7%

## CC1=C(C(=O)OCCOc2ccccc2)C(c2ccc(C(C)C)cc2)C2=C(CCCC2=O)N1 (stereo not shown) [ST052247, 2-phenoxyethyl 2-methyl-4-[4-(methylethyl)phenyl]-5-oxo-1,4,6,7,8-pentahydroquinoline-3-carboxylate]
[1]
  activity at 5 µM: 64.1%
[2]
  activity at 5 µM: 98%

## CCCCOC(=O)C1=C(C)NC2=C(C(=O)CC(C)(C)C2)C1c1cccc(I)c1 (stereo not shown) [ST056056, butyl 4-(3-iodophenyl)-2,7,7-trimethyl-5-oxo-1,4,6,7,8-pentahydroquinoline-3-carboxylate]
[1]
  activity at 5 µM: 12.3%
[2]
  activity at 5 µM: 6.56%

## CCOC(=O)C1=C(C)NC2=C(C(=O)CC(C)(C)C2)C1c1cc2c(cc1[NH+]([O-])O)OCO2 (stereo not shown) [ST013060, ethyl 2,7,7-trimethyl-4-(6-nitro(2H-benzo[d]1,3-dioxolan-5-yl))-5-oxo-1,4,6,7,8-pentahydroquinoline-3-carboxylate]
[1]
  activity at 5 µM: 99.4%
[2]
  activity at 5 µM: 32.7%

## CCOCCOC(=O)C1=C(C)NC2=C(C(=O)CC(c3ccccc3)C2)C1c1ccccc1F (stereo not shown) [ST017312, 2-ethoxyethyl 4-(2-fluorophenyl)-2-methyl-5-oxo-7-phenyl-1,4,6,7,8-pentahydroquinoline-3-carboxylate]
[1]
  activity at 5 µM: 71.2%
[2]
  activity at 5 µM: 15.3%

## CCOC(=O)C1=C(N)n2c(s/c(=C/c3ccc(C(C)C)cc3)c2=O)=C(C(=O)OCC)C1c1ccc(C(C)C)cc1 (stereo not shown) [ST011764, ethyl 5-amino-6-(ethoxycarbonyl)-7-[4-(methylethyl)phenyl]-2-{[4-(methylethyl)phenyl]methylene}-3-oxo-4,7-dihydro-1,3-thiazolidino[3,2-a]pyridine-8-carboxylate]
[1]
  Aβ1-42 (% of control): 70.37 % of control
[2]
  Aβ1-40 (% of control): 83.4 % of control

## CCOC(=O)C1=C(C)NC2=C(C(=O)CCC2)C1c1ccc(OCc2ccccc2Cl)c(OC)c1 (stereo not shown) [ST028591, ethyl 4-{4-[(2-chlorophenyl)methoxy]-3-methoxyphenyl}-2-methyl-5-oxo-1,4,6,7,8-pentahydroquinoline-3-carboxylate]
[1]
  activity at 5 µM: 69.6%
[2]
  activity at 5 µM: 98.3%

## COC(=O)C1=CNC=C(C(=O)OC)C1c1cccc(OC)c1 [ST052261, methyl 5-(methoxycarbonyl)-4-(3-methoxyphenyl)-1,4-dihydropyridine-3-carboxylate]
[1]
  Aβ1-42 (% of control): 57.24 % of control
[2]
  Aβ1-40 (% of control): 38.04 % of control

## CC1=C(C(=O)Nc2ccccc2)C(c2cccs2)C(C#N)=C(SCC(=O)Nc2ccccc2C)N1 (stereo not shown) [ST050837, 2-[3-cyano-6-methyl-5-(N-phenylcarbamoyl)-4-(2-thienyl)(2-1,4-dihydropyridylthio)]-N-(2-methylphenyl)acetamide]
[1]
  Aβ1-42 (% of control): 41.29 % of control
[2]
  Aβ1-40 (% of control): 95.44 % of control

## CC1=C(C(=O)Nc2ccccc2)C(c2cccs2)C(C#N)=C(SCC(=O)Nc2ccc(F)cc2)N1 (stereo not shown) [RI_76]
[1]
  Aβ1-42 (% of control): 54.6 % of control
[2]
  Aβ1-40 (% of control): 46.2 % of control

## CC1=C(C(=O)OCCOc2ccccc2)C(c2ccccc2Cl)C2=C(CC(C)(C)CC2=O)N1 (stereo not shown) [ST015096, 2-phenoxyethyl 4-(2-chlorophenyl)-2,7,7-trimethyl-5-oxo-1,4,6,7,8-pentahydroquinoline-3-carboxylate]
[1]
  activity at 5 µM: 80%
[2]
  activity at 5 µM: 28.1%

## Cc1ccsc1/C=c1\sc2n(c1=O)C(N)=C(C#N)C(c1sccc1C)C=2C#N (stereo not shown) [ST006952, 5-amino-7-(3-methyl(2-thienyl))-2-[(3-methyl(2-thienyl))methylene]-3-oxo-4,7-dihydro-1,3-thiazolidino[3,2-a]pyridine-6,8-dicarbonitrile]
[1]
  Aβ1-42 (% of control): 77.1 % of control
[2]
  Aβ1-40 (% of control): 48.24 % of control

## CC1=C(C(=O)Nc2ccc(Cl)cc2)C(c2ccccc2)c2c(sc(C(=O)Nc3cccc(C)c3)c2N)N1 (stereo not shown) [RI_43]
[1]
  Aβ1-42 (% of control): 75.1 % of control
[2]
  Aβ1-40 (% of control): 61.2 % of control

## Cc1ccccc1/C=c1/sc2n(c1=O)C(N)=C(C#N)C(c1ccccc1C)C=2C#N (stereo not shown) [ST003359, 5-amino-7-(2-methylphenyl)-2-[(2-methylphenyl)methylene]-3-oxo-4,7-dihydro-1,3-thiazolidino[3,2-a]pyridine-6,8-dicarbonitrile]
[1]
  Aβ1-42 (% of control): 98.22 % of control
[2]
  Aβ1-40 (% of control): 56.16 % of control

## COCCOC(=O)C1=C(C)NC2=C(C(=O)CCC2)C1c1ccc(N(C)C)cc1 (stereo not shown) [ST013251, 2-methoxyethyl 4-[4-(dimethylamino)phenyl]-2-methyl-5-oxo-1,4,6,7,8-pentahydroquinoline-3-carboxylate]
[1]
  activity at 5 µM: 58.6%
[2]
  activity at 5 µM: 89.4%

## CCOc1cc(C2C(C(=O)OCc3ccccc3)=C(C)NC3=C2C(=O)CCC3)ccc1O (stereo not shown) [ST013242, phenylmethyl 4-(3-ethoxy-4-hydroxyphenyl)-2-methyl-5-oxo-1,4,6,7,8-pentahydroquinoline-3-carboxylate]
[1]
  activity at 5 µM: 64.4%
[2]
  activity at 5 µM: 81.2%

## CC1=C(C(=O)Nc2ccccc2)C(c2cccs2)C(C#N)=C(SCC(=O)Nc2ccc(Cl)c(C)c2)N1 (stereo not shown) [RI_72]
[1]
  Aβ1-42 (% of control): 50.9 % of control
[2]
  Aβ1-40 (% of control): 40.2 % of control

## COC(=O)C1=C(C)NC2=C(C(=O)CC(c3ccccc3Cl)C2)C1c1cccc([N+](=O)[O-])c1 (stereo not shown) [ST015070, methyl 7-(2-chlorophenyl)-2-methyl-4-(3-nitrophenyl)-5-oxo-1,4,6,7,8-pentahydroquinoline-3-carboxylate]
[1]
  activity at 5 µM: 97%
[2]
  activity at 5 µM: 65.4%

## CCc1cccc(NC(=O)CSC2=C(C#N)C(c3ccc(-c4ccccn4)s3)C(C(=O)Nc3ccccc3)=C(C)N2)c1 (stereo not shown) [RI_86]
[1]
  Aβ1-42 (% of control): 21.8 % of control
[2]
  Aβ1-40 (% of control): 32.8 % of control

## CC1=C(C(=O)Nc2ccccc2C)C(c2cccs2)C(C#N)=C(SCC(=O)Nc2ccc(C)c(Cl)c2)N1 (stereo not shown) [ST050840, N-(3-chloro-4-methylphenyl)-2-{3-cyano-6-methyl-5-[N-(2-methylphenyl)carbamoyl]-4-(2-thienyl)(2-1,4-dihydropyridylthio)}acetamide]
[1]
  Aβ1-42 (% of control): 38.84 % of control
[2]
  Aβ1-40 (% of control): 52.3 % of control

## COC(=O)C1=C(C)NC2=C(C(=O)CC(c3ccccc3Cl)C2)C1c1ccc([N+](=O)[O-])cc1 (stereo not shown) [ST015176, methyl 7-(2-chlorophenyl)-2-methyl-4-(4-nitrophenyl)-5-oxo-1,4,6,7,8-pentahydroquinoline-3-carboxylate]
[1]
  activity at 5 µM: 76.4%
[2]
  activity at 5 µM: 17.4%

## CCOC(=O)C1=C(C)NC2=C(C(=O)CC(c3ccccc3)C2)C1c1cc(OC)ccc1OC (stereo not shown) [ST015254, ethyl 4-(2,5-dimethoxyphenyl)-2-methyl-5-oxo-7-phenyl-1,4,6,7,8-pentahydroquinoline-3-carboxylate]
[1]
  activity at 5 µM: 33.8%
[2]
  activity at 5 µM: 46.9%

## CCc1cccc(NC(=O)CSC2=C(C#N)C(c3cc4cccnc4s3)C(C(=O)Nc3ccccc3)=C(C)N2)c1 (stereo not shown) [RI_84]
[1]
  Aβ1-42 (% of control): 44.5 % of control
[2]
  Aβ1-40 (% of control): 64.2 % of control

## CC1=C(C(=O)Nc2ccccc2)C(c2cccs2)C(C#N)=C(SCC(=O)NC2CCC(C)CC2)N1 (stereo not shown) [RI_21]
[1]
  Aβ1-42 (% of control): 22.1 % of control
[2]
  Aβ1-40 (% of control): 18.7 % of control

## CCCCOC(=O)C1=C(C)NC2=C(C(=O)CC(C)(C)C2)C1c1ccccc1[N+](=O)[O-] (stereo not shown) [ST215464, butyl 2,7,7-trimethyl-4-(2-nitrophenyl)-5-oxo-1,4,6,7,8-pentahydroquinoline-3-carboxylate]
[1]
  activity at 5 µM: 90.7%
[2]
  activity at 5 µM: 62.7%

## COC(=O)C1=CN(Cc2ccc(OC)c(OC)c2)C=C(C(=O)OC)C1c1ccc(OC)c(OC)c1 [ST038162, methyl 4-(3,4-dimethoxyphenyl)-1-[(3,4-dimethoxyphenyl)methyl]-5-(methoxycarbonyl)-1,4-dihydropyridine-3-carboxylate]
[1]
  Aβ1-42 (% of control): 58.62 % of control
[2]
  Aβ1-40 (% of control): 49.65 % of control

## COc1ccccc1C1C(C(=O)OC2CCCC2)=C(C)NC2=C1C(=O)CC(c1ccccc1)C2 (stereo not shown) [ST017176, cyclopentyl 4-(2-methoxyphenyl)-2-methyl-5-oxo-7-phenyl-1,4,6,7,8-pentahydroquinoline-3-carboxylate]
[1]
  activity at 5 µM: 49.8%
[2]
  activity at 5 µM: 34.2%

## COc1ccccc1C1C(C(=O)OC2CCCCC2)=C(C)NC2=C1C(=O)CCC2 (stereo not shown) [ST013339, cyclohexyl 4-(2-methoxyphenyl)-2-methyl-5-oxo-1,4,6,7,8-pentahydroquinoline-3-carboxylate]
[1]
  activity at 5 µM: 6.87%
[2]
  activity at 5 µM: 43.6%

## CCc1ccc(C2C(C(=O)OC3CCCC3)=C(C)NC3=C2C(=O)CC(C)(C)C3)cc1 (stereo not shown) [ST013227, cyclopentyl 4-(4-ethylphenyl)-2,7,7-trimethyl-5-oxo-1,4,6,7,8-pentahydroquinoline-3-carboxylate]
[1]
  activity at 5 µM: 92.7%
[2]
  activity at 5 µM: 0%

## CC1=C(C(=O)Nc2ccccc2)C(c2ccsc2)C(C#N)=C(SCC(=O)Nc2ccc(Cl)c(C)c2)N1 (stereo not shown) [RI_83]
[1]
  Aβ1-42 (% of control): 55.4 % of control
[2]
  Aβ1-40 (% of control): 44.1 % of control

## CCOc1ccccc1C1C(C(=O)OCCOc2ccccc2)=C(C)NC2=C1C(=O)CC(C)(C)C2 (stereo not shown) [ST052381, 2-phenoxyethyl 4-(2-ethoxyphenyl)-2,7,7-trimethyl-5-oxo-1,4,6,7,8-pentahydroquinoline-3-carboxylate]
[1]
  activity at 5 µM: 62%
[2]
  activity at 5 µM: 45.1%

## CCOc1ccc(C2C(C(=O)OC)=C(C)NC3=C2C(=O)CC(c2ccc(OC)cc2)C3)cc1 (stereo not shown) [ST016974, methyl 4-(4-ethoxyphenyl)-7-(4-methoxyphenyl)-2-methyl-5-oxo-1,4,6,7,8-pentahydroquinoline-3-carboxylate]
[1]
  activity at 5 µM: 57.4%
[2]
  activity at 5 µM: 34.6%

— US20100119599A1 (ARCHER PHARMACEUTICALS, INC., priority 2006, published 2010)
